According to patent US11802110B2, “2-amino-N-(arylsulfinyl)-acetamide compounds as inhibitors of bacterial aminoacyl-tRNA synthetase” (priority 2016, dated 2023):
Converted amounts (≈) assume the structure as drawn. “And” between values parts separate entries of the source, which are not always exact repeats. Equal values may be shown once. Read-outs that look alike come from different tables or passages of the source.

Columns and labels:
[1] = system: wild type E. Coli strain BW25113; test: Study 3 - Antibacterial activity (EC50), dilution susceptibility test M07-A9; type: cell-based, Escherichia coli; conditions: for EC50: Escherichia coli
Procedure: The antibacterial activity of the separated diastereomers (V-i) and (V-ii) was determined against wild type E. Coli strain BW25113.
The method described in “Methods for Dilution Antimicrobial Susceptibility Tests for Bacteria that Grow Aerobically; Approved Standard—Ninth Edition” (M07-A9; Vol. 32, No. 2) was used.

Escherichia Coli LeuRS = Escherichia Coli LeuRS (Escherichia coli (strain K12), UniProt P07813); test: Study 1 - Isothermal titration calorimetry (ITC), separated diastereomers; type: binding
Procedure: The dissociation constants (KD) of the separated diastereomers (V-i) and (V-ii) for binding to Escherichia Coli LeuRS were determined by isothermal titration calorimetry (ITC).
Escherichia coli BL21(DE3) cells transformed with plasmid pQE-60 containing the open-reading frame sequence of one targeted aaRS (i.e., LeuRS) were induced with 1 mM IPTG (isopropyl β-D-1-thiogalactopyranoside) for 3 hours at 37° C. Bacterial cells were harvested and lysed with 20 mM HEPES (4-(2-hydroxyethyl)-1-piperazinylethane-sulfonic acid) (pH 7.5), 300 mM NaCl, 15 mM imidazole and 1 mM DTT (1,4-dithio-D-threitol). The pathogenic aaRS was first purified by nickel affinity standard chromatography. The eluted protein was concentrated and then further purified by gel filtration using 50 mM HEPES (pH 7.5), 150 mM NaCl buffer.
ITC studies were carried out using a Microcal ITC200 instrument (GE Healthcare). […] The titrations were performed at 25° C. with 10-30 μM E. Coli LeuRS in 50 mM HEPES, 150 mM NaCl, pH 7.5 buffer containing 1% DMSO (v/v). The protein solution in the 200 μL sample cell was titrated with the inhibitor solution (diluted to 100-300 μM in the same buffer as the protein) using 1-2 μL injections every 140 seconds. All titrations were repeated at least three times. To correct for heats of dilution and mixing, the final baseline consisting of small peaks of identical size at the end of each experiment was subtracted. The experimental data were fitted to a theoretical titration curve (one site model) using MicroCal Origin 7 software.

[2] = ITC, 25° C., pH 7.5, single replicates 1-3
[3] = ITC, 25° C., pH 7.5, single replicates 1-3, read-out: K (binding constant) (converted)
[4] = read-out: KD (dissociation constant)

Sequence of Escherichia Coli LeuRS (P07813 whole entry): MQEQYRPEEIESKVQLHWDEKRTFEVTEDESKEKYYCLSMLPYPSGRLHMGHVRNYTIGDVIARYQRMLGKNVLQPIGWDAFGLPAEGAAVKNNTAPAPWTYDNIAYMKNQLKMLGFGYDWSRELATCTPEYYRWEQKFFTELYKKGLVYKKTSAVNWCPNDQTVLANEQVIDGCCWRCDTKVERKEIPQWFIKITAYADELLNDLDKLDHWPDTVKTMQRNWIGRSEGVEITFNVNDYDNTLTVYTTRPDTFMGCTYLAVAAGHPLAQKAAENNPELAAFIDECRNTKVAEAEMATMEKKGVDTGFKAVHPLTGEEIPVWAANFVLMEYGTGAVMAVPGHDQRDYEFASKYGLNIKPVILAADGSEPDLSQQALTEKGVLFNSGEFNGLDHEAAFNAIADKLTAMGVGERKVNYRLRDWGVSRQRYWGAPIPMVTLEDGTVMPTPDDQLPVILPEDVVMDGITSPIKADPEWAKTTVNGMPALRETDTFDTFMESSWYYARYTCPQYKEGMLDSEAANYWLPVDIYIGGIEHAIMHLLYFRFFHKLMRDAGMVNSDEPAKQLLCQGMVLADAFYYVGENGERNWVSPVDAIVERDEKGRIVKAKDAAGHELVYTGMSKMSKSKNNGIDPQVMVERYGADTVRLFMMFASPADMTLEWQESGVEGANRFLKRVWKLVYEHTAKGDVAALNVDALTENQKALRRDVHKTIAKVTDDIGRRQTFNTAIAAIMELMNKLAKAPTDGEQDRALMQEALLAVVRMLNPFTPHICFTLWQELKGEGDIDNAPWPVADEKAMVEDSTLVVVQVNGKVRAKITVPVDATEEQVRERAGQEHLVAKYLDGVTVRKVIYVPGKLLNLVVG

In the case of `CC(C)C[C@H](N)C(=O)N[S@+]([O-])c1ccccc1` (single isomer, unassigned) [V-i], the “antibacterial activity (in words)” value [1] is reported as “potent antibacterial agent”, the EC50 [1] is reported as 4 µg/mL (≈ 15.7 µM) and the “binding to E. coli LeuRS (in words)” value (Escherichia Coli LeuRS; ITC) is reported as “binds with high affinity”. The “K (binding constant)” value (Escherichia Coli LeuRS; [2]) was 2.4e+08 M⁻¹, the “ΔS” value (Escherichia Coli LeuRS; [2]) was −7.96 cal/mol/° C. and −12.5 cal/mol/° C. and −7.03 cal/mol/° C and the Kd (Escherichia Coli LeuRS; [3]) was 6.49 nM and 3.14 nM. It also gave a Kd (Escherichia Coli LeuRS; [4]) of 4.6 nM.
In the case of `CC(C)C[C@H](N)C(=O)N[S@@+]([O-])c1ccccc1` (single isomer, unassigned) [V-ii], the EC50 [1] is reported as over 128 µg/mL, the “K (binding constant)” value (Escherichia Coli LeuRS; [2]) is reported as 83500 M⁻¹ and 77000 M⁻¹ and the “ΔH” value (Escherichia Coli LeuRS; [2]) is reported as -5.69 kcal/mol and -5.899 kcal/mol and -6.2 kcal/mol. For the same molecule, the “ΔS” value (Escherichia Coli LeuRS; [2]) was “+3.44 cal/mol/° C. and +2.28 cal/mol/° C. and +1.56 cal/mol/° C”, the Kd (Escherichia Coli LeuRS; [3]) was 15000 nM and the Kd (Escherichia Coli LeuRS; [4]) was 13000 nM.
